Measured values from paper PMC12029179, “6-Chlorocoumarin Conjugates with Nucleobases and Nucleosides as Potent Anti-Hepatitis C Virus Agents” (Molecules, 2025).

Experiments:
[1] = system: HCV genotype 1b subgenomic replicon; assay: Anti-HCV assay in Huh 5-2 cells (luciferase replicon readout); type: cell-based, hepatitis C virus (HCV); details: for EC50: Huh-5-2, Huh 5-2 cells, luminescence
From the text: (§1) An evaluation of the antiviral effects of the conjugated compounds was initially performed in Huh 5-2 cells utilizing the HCV genotype 1b subgenomic replicon system, based on previously reported procedures. By analyzing the dose–response curves, we calculated the concentration of each compound that inhibited the viral replication by 50% (EC50) and the concentration that reduced the host-cell metabolic activity by 50% (CC50). These values were then used to compute the selectivity index (SI = CC50/EC50), which serves as an indicator of a compound’s therapeutic window. Even if an EC50 was determined from the dose–response curve in the antiviral assay, the compounds that were evaluated may not qualify as promising hits. […] It is likely that the antiviral activity observed in the other compounds is due to their nonspecific or pleiotropic effects on the host cell.
Huh 5-2 cells were plated in white, tissue culture-treated 96-well view plates (Packard, Canberra, Canada) at a density of 5 × 10^3 cells per well, using complete Dulbecco’s Modified Eagle Medium (DMEM) containing 250 µg/mL G418. Following 24 h incubation at 37 °C with 5% CO2, the medium was discarded and serial 3-fold dilutions of the test compounds—prepared in complete DMEM lacking G418—were added to reach a final volume of 100 µL per well. After an additional 4-day incubation period under the same conditions, the medium was removed, and luciferase activity was assessed using the Steady-Glo luciferase assay kit (Promega, Leiden, The Netherlands). Luminescence was measured with a Luminoskan Ascent reader (Thermo, Vantaa, Finland). The EC50 value was determined as the compound concentration resulting in a 50% decrease in luciferase signal.

[2] = Host-cell metabolic activity (MTS assay) in Huh 5-2 cells; type: cell-based; details: human
From the text: as §1

[3] = Hepatitis C virus, primary screening, tested starting at 50 μg/mL
[4] = Huh 5-2 cells, primary screening starting at 50 μg/mL
[5] = primary screening, tested starting at 50 μg/mL
[6] = Hepatitis C virus, secondary screen starting at 125 μg/mL, average of triplicate
[7] = Huh 5-2 cells, secondary screen starting at 125 μg/mL
[8] = secondary screen starting at 125 μg/mL

| Compound | EC50 [1, 3] | SI (CC50/EC50) [1, 4] | CC50 [2, 5] | EC50 [1, 6] | inhibition at 50 µg/mL ([1]; Hepatitis C virus, Huh 5-2 cells, at 50 μg/mL) | inhibition at 125 µg/mL ([1]; Hepatitis C virus, Huh 5-2 cells, at 125 μg/mL) | SI (CC50/EC50) [1, 7] | CC50 [2, 8] |
| --- | --- | --- | --- | --- | --- | --- | --- | --- |
| Cc1cn([C@H]2C[C@H](O)[C@@H](CO)O2)c(=O)nc1SCc1cc2cc(Cl)ccc2oc1=O [Compound 16b, 4-[(6′-Chlorocoumarin-3′-yl)methylthio]thymidine] | 59 µM | >1.9 | > 111 µM |  |  |  |  |  |
| O=c1oc2ccc(Cl)cc2cc1CSc1ccn([C@@H]2O[C@H](CO)[C@@H](O)[C@H]2O)c(=O)n1 [Compound 16a, 4-[(6′-Chlorocoumarin-3′-yl)methylthio]uridine] | 16 µM | >6.8 | > 108 µM |  |  |  |  |  |
| Nc1ccnc(SCc2cc3cc(Cl)ccc3oc2=O)n1 [Compound 20, 4-Amino-2-[(6′-chlorocoumarin-3′-yl)methylthio]pyrimidine] | 53 µM | >2.9 | > 156 µM | 21 µM | 69.8% | < 80% | >19 | > 391 µM |
| Nc1ncnc2c1nc(SCc1cc3cc(Cl)ccc3oc1=O)n2[C@@H]1O[C@H](CO)[C@@H](O)[C@H]1O [Compound 3b, 8-[(6′-Chlorocoumarin-3′-yl)methylthio]adenosine] | 32 µM | 1.5 | 48 µM |  |  |  |  |  |
| Nc1nc(SCc2cc3cc(Cl)ccc3oc2=O)c2ncn([C@@H]3O[C@H](CO)[C@@H](O)[C@H]3O)c2n1 [Compound 9b, 2-Amino-6-(6′-chlorocoumarin-3′-yl)methylthio-9-(β-D-ribofuranos-1″-yl)purine] | 15 µM | >6.9 | > 102 µM |  |  |  |  |  |
| Nc1nc(SCc2cc3cc(Cl)ccc3oc2=O)c2nc[nH]c2n1 [Compound 9a, 2-Amino-6-[(6′-chlorocoumarin-3′-yl)methylthio]purine] | 65 µM | >2.1 | > 139 µM | 48 µM |  |  | >7.3 | > 347 µM |
| Cc1c[nH]c(=O)nc1SCc1cc2cc(Cl)ccc2oc1=O [Compound 11b, 4-(6′-Chlorocoumarin-3′-yl)methylthio-5-methyluracil] | 16 µM | >9.1 | > 149 µM |  |  |  |  |  |
| Nc1ncnc2[nH]c(SCc3cc4cc(Cl)ccc4oc3=O)nc12 [Compound 3a, 8-[(6′-Chlorocoumarin-3′-yl)methylthio]adenine] | 10 µM | 6.7 | 69 µM |  |  |  |  |  |
| Nc1nc2[nH]c(SCc3cc4cc(Cl)ccc4oc3=O)nc2c(=O)[nH]1 [Compound 5b, 8-[(6’-Chlorocoumarin-3’-yl)methylthio]guanine] | 51 µM | >2.6 | > 133 µM |  |  |  |  |  |
| O=c1nc(SCc2cc3cc(Cl)ccc3oc2=O)cc[nH]1 [Compound 11a, 4-[(6′-Chlorocoumarin-3′-yl)methylthio]uracil] | 18 µM | >8.6 | > 156 µM |  |  |  |  |  |
| Nc1nc2c(nc(SCc3cc4cc(Cl)ccc4oc3=O)n2[C@@H]2O[C@H](CO)[C@@H](O)[C@H]2O)c(=O)[nH]1 [Compound 5a, 8-[(6′-Chlorocoumarin-3′-yl)methylthio]guanosine] | > 98 µM |  | > 98 µM |  |  |  |  |  |
